Measured values reported in paper doi:10.1101/2024.08.19.608619, “Discovery of potent SARS-CoV-2 nsp3 macrodomain inhibitors uncovers lack of translation to cellular antiviral response” (bioRxiv, 2024).
Values after ≈ are worked out from the molar mass of the structure shown.

Test system: not listed separately
Test: Hepatic microsomal stability, MLM
Type: in vitro ADME
Details: In vitro mouse liver microsomal stability

For `CNCc1cc(-c2cc3c(N[C@H](c4ccc5c(c4)S(=O)(=O)CCC5)C(C)C)ncnc3[nH]2)co1` (single isomer, unassigned) [ASAP-0011169], which clint is on record?
Its clint is 40.0 µL/min/mg.

What about the perc_remaining of the same compound?
Its perc_remaining is 51.0%.

And the t_half?
Its t_half is 41.8 min.

Which clint does the source give for `CC(C)[C@H](Nc1ncnc2[nH]c(-c3cnn(C)c3C#N)cc12)c1ccc2c(n1)NC(=O)CO2` (single isomer, unassigned) [ASAP-0011177] here?
The clint was 131.0 µL/min/mg.

What about the perc_remaining of the same compound?
Its perc_remaining is 12.0%.

What about the t_half of the same compound?
Its t_half is 12.8 min.

Same assay, conditions: In vitro mouse liver microsomal stability, no cofactor

Which perc_remaining_no_cofactor does the source give for `CNCc1cc(-c2cc3c(N[C@H](c4ccc5c(c4)S(=O)(=O)CCC5)C(C)C)ncnc3[nH]2)co1` (single isomer, unassigned) [ASAP-0011169] here?
Its perc_remaining_no_cofactor is 96.0%.

For `CC(C)[C@H](Nc1ncnc2[nH]c(-c3cnn(C)c3C#N)cc12)c1ccc2c(n1)NC(=O)CO2` (single isomer, unassigned) [ASAP-0011177], which perc_remaining_no_cofactor is on record?
Its perc_remaining_no_cofactor is 85.0%.

Test system: not listed separately
Test: In vitro kinetic solubility
Details: In vitro kinetic solubility, ph 7.4

For `CNCc1cc(-c2cc3c(N[C@H](c4ccc5c(c4)S(=O)(=O)CCC5)C(C)C)ncnc3[nH]2)co1` (single isomer, unassigned) [ASAP-0011169], which solubility_mean is on record?
Its solubility_mean is 358 µM (≈ 172 µg/mL).

With `CC(C)[C@H](Nc1ncnc2[nH]c(-c3cnn(C)c3C#N)cc12)c1ccc2c(n1)NC(=O)CO2` (single isomer, unassigned) [ASAP-0011177] as the compound, how does the solubility_mean read?
The solubility_mean was 28 µM (≈ 12.4 µg/mL).

Test system: not listed separately
Test: LogD
Details: pH 7.4; In vitro LogD

For `CNCc1cc(-c2cc3c(N[C@H](c4ccc5c(c4)S(=O)(=O)CCC5)C(C)C)ncnc3[nH]2)co1` (single isomer, unassigned) [ASAP-0011169], which logd is on record?
The logd was 2.1.

Which logd does the source give for `CC(C)[C@H](Nc1ncnc2[nH]c(-c3cnn(C)c3C#N)cc12)c1ccc2c(n1)NC(=O)CO2` (single isomer, unassigned) [ASAP-0011177] here?
The logd was 3.7.

Test system: not listed separately
Test: Permeability Papp (AB) MDR1/MDCKII
Details: In vitro MDR1-MDCKII permeability, A to B, mean

For `CNCc1cc(-c2cc3c(N[C@H](c4ccc5c(c4)S(=O)(=O)CCC5)C(C)C)ncnc3[nH]2)co1` (single isomer, unassigned) [ASAP-0011169], which papp_a_to_b_mean is on record?
The papp_a_to_b_mean was 0.483 ×10⁻⁶ cm/s.

Which papp_a_to_b_mean does the source give for `CC(C)[C@H](Nc1ncnc2[nH]c(-c3cnn(C)c3C#N)cc12)c1ccc2c(n1)NC(=O)CO2` (single isomer, unassigned) [ASAP-0011177] here?
The papp_a_to_b_mean was 9.35 ×10⁻⁶ cm/s.

Same assay, conditions: In vitro MDR1-MDCKII permeability, A to B, no inhibitor

Which papp_a_to_b_mean does the source give for `CC(C)[C@H](Nc1ncnc2[nH]c(-c3cnn(C)c3C#N)cc12)c1ccc2c(n1)NC(=O)CO2` (single isomer, unassigned) [ASAP-0011177] here?
The papp_a_to_b_mean was 0.0964 ×10⁻⁶ cm/s.

Same assay, conditions: In vitro MDR1-MDCKII permeability, B to A, no inhibitor

Which papp_b_to_a_mean does the source give for `CC(C)[C@H](Nc1ncnc2[nH]c(-c3cnn(C)c3C#N)cc12)c1ccc2c(n1)NC(=O)CO2` (single isomer, unassigned) [ASAP-0011177] here?
Its papp_b_to_a_mean is 6.5 ×10⁻⁶ cm/s.

Same assay, conditions: In vitro MDR1-MDCKII permeability, no inhibitor

For `CC(C)[C@H](Nc1ncnc2[nH]c(-c3cnn(C)c3C#N)cc12)c1ccc2c(n1)NC(=O)CO2` (single isomer, unassigned) [ASAP-0011177], which efflux_ratio is on record?
The efflux_ratio was 67.2.

Same assay, conditions: In vitro MDR1-MDCKII permeability, recovery A to B, mean

With `CNCc1cc(-c2cc3c(N[C@H](c4ccc5c(c4)S(=O)(=O)CCC5)C(C)C)ncnc3[nH]2)co1` (single isomer, unassigned) [ASAP-0011169] as the compound, how does the perc_recovery_a_to_b_mean read?
Its perc_recovery_a_to_b_mean is 63.8%.

With `CC(C)[C@H](Nc1ncnc2[nH]c(-c3cnn(C)c3C#N)cc12)c1ccc2c(n1)NC(=O)CO2` (single isomer, unassigned) [ASAP-0011177] as the compound, how does the perc_recovery_a_to_b_mean read?
The perc_recovery_a_to_b_mean was 80.2%.

Same assay, conditions: In vitro MDR1-MDCKII permeability, recovery A to B, no inhibitor

For `CC(C)[C@H](Nc1ncnc2[nH]c(-c3cnn(C)c3C#N)cc12)c1ccc2c(n1)NC(=O)CO2` (single isomer, unassigned) [ASAP-0011177], which perc_recovery_a_to_b_mean is on record?
Its perc_recovery_a_to_b_mean is 69.4%.

Same assay, conditions: In vitro MDR1-MDCKII permeability, recovery B to A, no inhibitor

With `CC(C)[C@H](Nc1ncnc2[nH]c(-c3cnn(C)c3C#N)cc12)c1ccc2c(n1)NC(=O)CO2` (single isomer, unassigned) [ASAP-0011177] as the compound, how does the perc_recovery_b_to_a_mean read?
The perc_recovery_b_to_a_mean was 79.8%.

Same assay, conditions: MDR1-MDCKII, recovery A to B, with inhibitor Verapamil

With `CC(C)[C@H](Nc1ncnc2[nH]c(-c3cnn(C)c3C#N)cc12)c1ccc2c(n1)NC(=O)CO2` (single isomer, unassigned) [ASAP-0011177] as the compound, how does the perc_recovery_a_to_b_inhibitor_mean read?
The perc_recovery_a_to_b_inhibitor_mean was 78.2%.

Same assay, conditions: MDR1-MDCKII, recovery B to A, with inhibitor Verapamil

For `CC(C)[C@H](Nc1ncnc2[nH]c(-c3cnn(C)c3C#N)cc12)c1ccc2c(n1)NC(=O)CO2` (single isomer, unassigned) [ASAP-0011177], which perc_recovery_b_to_a_inhibitor_mean is on record?
Its perc_recovery_b_to_a_inhibitor_mean is 81.1%.

Test system: not listed separately
Test: Hepatic microsomal stability, HLM
Type: in vitro ADME, human
Details: In vitro human liver microsomal stability

For `CNCc1cc(-c2cc3c(N[C@H](c4ccc5c(c4)S(=O)(=O)CCC5)C(C)C)ncnc3[nH]2)co1` (single isomer, unassigned) [ASAP-0011169], which clint is on record?
Its clint is 67.0 µL/min/mg.

What about the perc_remaining of the same compound?
Its perc_remaining is 33.0%.

And the t_half?
Its t_half is 25.1 min.

With `CC(C)[C@H](Nc1ncnc2[nH]c(-c3cnn(C)c3C#N)cc12)c1ccc2c(n1)NC(=O)CO2` (single isomer, unassigned) [ASAP-0011177] as the compound, how does the clint read?
Its clint is 137.0 µL/min/mg.

And the perc_remaining?
The perc_remaining was 10.0%.

And the t_half?
Its t_half is 12.2 min.

Same assay, conditions: In vitro human liver microsomal stability; no cofactor

Which perc_remaining_no_cofactor does the source give for `CNCc1cc(-c2cc3c(N[C@H](c4ccc5c(c4)S(=O)(=O)CCC5)C(C)C)ncnc3[nH]2)co1` (single isomer, unassigned) [ASAP-0011169] here?
Its perc_remaining_no_cofactor is 98.0%.

For `CC(C)[C@H](Nc1ncnc2[nH]c(-c3cnn(C)c3C#N)cc12)c1ccc2c(n1)NC(=O)CO2` (single isomer, unassigned) [ASAP-0011177], which perc_remaining_no_cofactor is on record?
The perc_remaining_no_cofactor was 92.0%.

Test system: SARS-CoV-2, isolate USA-WA1/2020
Test: microbe, parasite or virus in culture
Type: cell-based
Details: HeLa-ACE2 SARS-CoV-2 antiviral effect without P-gp inhibitor; maximum measured response of dose series

Which perc_max_measured does the source give for `CNCc1cc(-c2cc3c(N[C@H](c4ccc5c(c4)S(=O)(=O)CCC5)C(C)C)ncnc3[nH]2)co1` (single isomer, unassigned) [ASAP-0011169] here?
The perc_max_measured was 94.818%.

With `CC(C)[C@H](Nc1ncnc2[nH]c(-c3cnn(C)c3C#N)cc12)c1ccc2c(n1)NC(=O)CO2` (single isomer, unassigned) [ASAP-0011177] as the compound, how does the perc_max_measured read?
The perc_max_measured was 70.604%.

Same assay, conditions: HeLa-ACE2 SARS-CoV-2 antiviral effect without P-gp inhibitor; minimum measured response of dose series

For `CNCc1cc(-c2cc3c(N[C@H](c4ccc5c(c4)S(=O)(=O)CCC5)C(C)C)ncnc3[nH]2)co1` (single isomer, unassigned) [ASAP-0011169], which perc_min_measured is on record?
Its perc_min_measured is 27.713%.

With `CC(C)[C@H](Nc1ncnc2[nH]c(-c3cnn(C)c3C#N)cc12)c1ccc2c(n1)NC(=O)CO2` (single isomer, unassigned) [ASAP-0011177] as the compound, how does the perc_min_measured read?
The perc_min_measured was 3.388%.

Same assay, conditions: HeLa-ACE2 SARS-CoV-2 antiviral effect without P-gp inhibitor; read-out: ec50

Which EC50 does the source give for `CNCc1cc(-c2cc3c(N[C@H](c4ccc5c(c4)S(=O)(=O)CCC5)C(C)C)ncnc3[nH]2)co1` (single isomer, unassigned) [ASAP-0011169] here?
Its EC50 is 11.1 µM.

With `CC(C)[C@H](Nc1ncnc2[nH]c(-c3cnn(C)c3C#N)cc12)c1ccc2c(n1)NC(=O)CO2` (single isomer, unassigned) [ASAP-0011177] as the compound, how does the EC50 read?
The EC50 was 0.858 µM.

Same assay, conditions: HeLa-ACE2 SARS-CoV-2 antiviral effect without P-gp inhibitor; read-out: ec90

Which EC90 does the source give for `CNCc1cc(-c2cc3c(N[C@H](c4ccc5c(c4)S(=O)(=O)CCC5)C(C)C)ncnc3[nH]2)co1` (single isomer, unassigned) [ASAP-0011169] here?
Its EC90 is greater than 20 µM.

Which EC90 does the source give for `CC(C)[C@H](Nc1ncnc2[nH]c(-c3cnn(C)c3C#N)cc12)c1ccc2c(n1)NC(=O)CO2` (single isomer, unassigned) [ASAP-0011177] here?
The EC90 was greater than 20 µM.

Test system: not listed separately
Test: in vitro
Details: human, hela-ace2 cells, 50.0

For `CNCc1cc(-c2cc3c(N[C@H](c4ccc5c(c4)S(=O)(=O)CCC5)C(C)C)ncnc3[nH]2)co1` (single isomer, unassigned) [ASAP-0011169], which CC50 at 24 h is on record?
The CC50 at 24 h was greater than 20 µM.

With `CC(C)[C@H](Nc1ncnc2[nH]c(-c3cnn(C)c3C#N)cc12)c1ccc2c(n1)NC(=O)CO2` (single isomer, unassigned) [ASAP-0011177] as the compound, how does the CC50 at 24 h read?
Its CC50 at 24 h is greater than 20 µM.

Test system: HeLa-ACE2 cells
Test: not given
Details: HeLa-ACE2 cytotoxicity

With `CNCc1cc(-c2cc3c(N[C@H](c4ccc5c(c4)S(=O)(=O)CCC5)C(C)C)ncnc3[nH]2)co1` (single isomer, unassigned) [ASAP-0011169] as the compound, how does the CC50 read?
Its CC50 is greater than 20 µM.

What about the cc10 of the same compound?
Its cc10 is greater than 20.0 µM.

Which results are given for `CC(C)[C@H](Nc1ncnc2[nH]c(-c3cnn(C)c3C#N)cc12)c1ccc2c(n1)NC(=O)CO2` (single isomer, unassigned) [ASAP-0011177]?
CC50: > 20 µM; cc10: > 20.0 µM

Same assay, conditions: HeLa-ACE2 cytotoxicity; highest measured response of the dose series

For `CNCc1cc(-c2cc3c(N[C@H](c4ccc5c(c4)S(=O)(=O)CCC5)C(C)C)ncnc3[nH]2)co1` (single isomer, unassigned) [ASAP-0011169], which perc_max_measured is on record?
Its perc_max_measured is 96.832%.

For `CC(C)[C@H](Nc1ncnc2[nH]c(-c3cnn(C)c3C#N)cc12)c1ccc2c(n1)NC(=O)CO2` (single isomer, unassigned) [ASAP-0011177], which perc_max_measured is on record?
The perc_max_measured was 109.886%.

Same assay, conditions: HeLa-ACE2 cytotoxicity; lowest measured response of the dose series

Which perc_min_measured does the source give for `CNCc1cc(-c2cc3c(N[C@H](c4ccc5c(c4)S(=O)(=O)CCC5)C(C)C)ncnc3[nH]2)co1` (single isomer, unassigned) [ASAP-0011169] here?
The perc_min_measured was 86.562%.

For `CC(C)[C@H](Nc1ncnc2[nH]c(-c3cnn(C)c3C#N)cc12)c1ccc2c(n1)NC(=O)CO2` (single isomer, unassigned) [ASAP-0011177], which perc_min_measured is on record?
Its perc_min_measured is 55.576%.
